In PMC8498988, “Scaffold Hybridization Strategy Leads to the Discovery of Dopamine D3 Receptor-Selective or Multitarget Bitopic Ligands Potentially Useful for Central Nervous System Disorders” (ACS Chemical Neuroscience, 2021):

What was measured:
D3R = D3R (Homo sapiens, UniProt P35462); assay: Radioligand competition binding at human D3R ([3H]N-methylspiperone, HEK293 membranes); parameters: expressed in transfected cells; host or cells: HEK293; conditions: for Ki: [3H]N-methylspiperone, HEK 293 cells expressing hD3R, read-out: Ki ± SEM, D3R; for D2/D3: ratio of Ki values D2R/D3R; for D4/D3: ratio of Ki values D4R/D3R
Sequence of D3R (P35462 whole entry): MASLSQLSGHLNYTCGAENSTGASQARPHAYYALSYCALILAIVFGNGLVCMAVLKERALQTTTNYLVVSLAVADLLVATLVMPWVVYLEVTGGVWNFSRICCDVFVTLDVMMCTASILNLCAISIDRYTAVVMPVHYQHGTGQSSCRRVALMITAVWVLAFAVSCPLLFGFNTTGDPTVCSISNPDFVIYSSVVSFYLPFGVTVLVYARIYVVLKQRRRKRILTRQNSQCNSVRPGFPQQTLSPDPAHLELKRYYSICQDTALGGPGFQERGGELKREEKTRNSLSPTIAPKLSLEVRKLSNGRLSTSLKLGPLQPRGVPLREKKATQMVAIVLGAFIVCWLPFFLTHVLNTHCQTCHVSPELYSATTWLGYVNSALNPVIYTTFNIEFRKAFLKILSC
Protocol: The novel hybrid derivatives 3–11 were tested at hD2R, hD3R, or hD4R stably expressed in HEK293 cells by competition binding assays, using [^3H]N-methylspiperone as the radioligand, to evaluate their D2-like affinity and subtype selectivity, following the previously reported procedures.[41],[45],[46]
Binding at dopamine D2-like receptors was determined using previously described methods.[41],[45],[46] Membranes were prepared from HEK293 cells stably expressing human D2, D3, or D4, grown in a 50:50 mix of Dulbecco’s minimal essential medium (DMEM) and Ham’s F12 culture media, supplemented with 20 mM HEPES, 2 mM L-glutamine, 0.1 mM nonessential amino acids, 1× antibiotic/antimycotic, 10% heat-inactivated fetal bovine serum, and 200 μg/mL hygromycin (Life Technologies, Grand Island, NY) and kept in an incubator at 37 °C and 5% CO2. Upon reaching 80–90% confluency, the cells were harvested using premixed Earle’s Balanced Salt Solution (EBSS) with 5 μM EDTA (Life Technologies) and centrifuged at 3000 rpm for 10 min at 21 °C. The supernatant was removed, and the pellet was resuspended in 10 mL hypotonic lysis buffer (5 mM MgCl2, 5 mM Tris, pH 7.4 at 4 °C) and centrifuged at 20,000 rpm for 30 min at 4 °C. The pellet was then resuspended in fresh EBSS buffer made from 8.7 g/L Earle’s Balanced Salts without phenol red (US Biological, Salem, MA), 2.2 g/L sodium bicarbonate, pH to 7.4. A Bradford protein assay (Bio-Rad, Hercules, CA) was used to determine the protein concentration, and membranes were diluted to 500 μg/mL and stored at −80 °C for later use. Radioligand competition binding experiments were conducted using thawed membranes. Test compounds were freshly dissolved in 30% DMSO and 70% H2O to a stock concentration of 100 μM. To assist the solubilization of free-base compounds, 10 μL of glacial acetic acid was added along with DMSO. Each test compound was then diluted into 13 half-log serial dilutions using 30% DMSO vehicle; the final test concentrations ranged from 10 μM to 10 pM. The previously frozen membranes were diluted in fresh EBSS to a 100 μg/mL (for D2 or D3) or 200 μg/mL (D4) stock for binding. Radioligand competition experiments were conducted in glass tubes containing 300 μL of fresh EBSS buffer, 50 μL of diluted test compound, 100 μL of membranes (10 μg of total protein for D2 or D3 and 20 μg of total protein for D4), and 50 μL of [^3H]N-methylspiperone (0.4 nM final concentration; PerkinElmer). Nonspecific binding was determined using 10 μM butaclamol (Sigma-Aldrich, St. Louis, MO), and total binding was determined with the 30% DMSO vehicle. All compound dilutions were tested in triplicate and the reaction was incubated for 1 h at room temperature. The reaction was terminated by filtration through Whatman GF/B filters, presoaked for 1 h in 0.5% polyethylenimine, using a Brandel R48 filtering manifold (Brandel Instruments, Gaithersburg, MD). The filters were washed three times with 3 mL of ice-cold EBSS buffer and transferred to scintillation vials. CytoScint liquid scintillation cocktail (3 mL, MP Biomedicals, Solon, OH) was added, and vials were counted using a PerkinElmer Tri-Carb 2910 TR liquid scintillation counter (Waltham, MA).

D4R = target: T1, D4R (Homo sapiens, UniProt P21917); assay: D4 adenylate cyclase/cAMP functional assay (HEK-D4.4-AC1 cells); type: cell-based; parameters: expressed in transfected cells; host or cells: HEK-D4.4-AC1 cells; conditions: for EC50 / % stimul., D4 adenylate cyclase: agonist mode; for EC50: inhibition of forskolin-stimulated cAMP formation; for % stimul., D4 adenylate cyclase: normalized to maximal effect of quinpirole; for functional behavior at D4R: in words
T1 sequence (P21917 1-419): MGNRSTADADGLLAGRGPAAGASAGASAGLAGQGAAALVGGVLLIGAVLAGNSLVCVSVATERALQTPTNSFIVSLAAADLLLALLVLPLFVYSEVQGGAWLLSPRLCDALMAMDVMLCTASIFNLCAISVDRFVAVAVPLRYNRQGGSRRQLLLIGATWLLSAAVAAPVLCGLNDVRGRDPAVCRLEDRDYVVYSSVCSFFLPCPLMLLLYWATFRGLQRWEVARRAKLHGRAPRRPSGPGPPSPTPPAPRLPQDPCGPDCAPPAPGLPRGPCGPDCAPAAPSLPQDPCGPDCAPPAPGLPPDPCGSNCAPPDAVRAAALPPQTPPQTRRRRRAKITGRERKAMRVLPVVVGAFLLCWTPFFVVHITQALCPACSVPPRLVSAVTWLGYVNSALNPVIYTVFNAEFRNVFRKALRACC
Protocol: HEK-D4.4-AC1 cells are grown to confluency on […]. The cells are plated at a density of 375,000 cells per well in 48-well plates in DMEM supplemented with 5% FetalClone, 5% BCS, and pen-strep. After ∼36 h, the medium is changed to DMEM supplemented with 10% charcoal-stripped FetalClone and pen-strep. The medium is removed ∼18 h later. For agonist assays, 0.8 mL of EBSS (116 mM NaCl, 22 mM glucose, 15 mM HEPES, 8.7 mM NaH2PO4, 5.4 mM KCl, 1.3 mM CaCl2, 1.2 mM MgSO4, 1 mM ascorbic acid, 0.5 mM IBMX [3-isobutyl-1-methyl-xanthine], and 2% BCS, pH 7.4 at 37 °C) is added, cells are incubated for 20 min, agonists are added, and, after a 20 min incubation, 10 μM of forskolin is added in a final volume of 1 mL. For antagonists, 0.7 mL of EBSS is added, cells are incubated for 10 min, antagonists are added, cells are incubated for 10 min, 2 nM quinpirole is added, and after a 20 min incubation, 10 μM forskolin is added in a final volume of 1 mL. For all conditions, after a 20 min incubation with forskolin, the reaction is terminated by aspiration of the buffer, and 0.1 mL of trichloroacetic acid is added. The plates are incubated for 2 h on a rotator. Adenylate cyclase activity is measured using a cyclic AMP EIA kit (Cayman). Aliquots (9 μL) of each well are diluted to 200 μL with EIA buffer from the kit, and 50 μL of dilution is added to the EIA plate. After addition of tracer and monoclonal antibody, the EIA plates are incubated for 18 h at 4 °C. The reaction is aspirated, the plates are washed with 5 × 300 μL wash buffer, and Ellman’s reagent is added. After a 2 hour incubation in the dark on a rotator, the plates are read at 410 nm. Basal cAMP is subtracted from all values. D4R agonists inhibit forskolin-stimulated cAMP formation, and maximal inhibition is defined with 1 μM quinpirole. Data normalized to percent forskolin stimulation are shown in the graph. The maximal effect is normalized to maximal effect of quinpirole in the tables. For antagonists, maximal reversal of inhibition of cAMP formation is defined with 10 μM haloperidol.

| Structure (SMILES) | Ki (D3R) [nM] | D2/D3 (D3R) | D4/D3 (D3R) | EC50 (D4R) [nM] | % stimul., D4 adenylate cyclase (D4R) [%] | functional behavior at D4R (D4R) |
| --- | --- | --- | --- | --- | --- | --- |
| O=C(NCCCCN1CCN(c2cccc(Cl)c2Cl)CC1)C1COCC(c2ccccc2)(c2ccccc2)O1 (stereo not drawn) [compound 3, N-(4-(4-(2,3-Dichlorophenyl)piperazin-1-yl)butyl)-6,6-diphenyl-1,4-dioxane-2-carboxamide] | 2.39 ± 0.69 | 143 | 566 | – | – | – |
| O=C(NCCCCN1CCN(c2cccc(Cl)c2Cl)CC1)C1COC(c2ccccc2)(c2ccccc2)CO1 (stereo not drawn) [compound 6, N-(4-(4-(2,3-Dichlorophenyl)piperazin-1-yl)butyl)-5,5-diphenyl-1,4-dioxane-2-carboxamide] | 1.58 ± 0.24 | 18 | 35 | 21.7 ± 8.4 | 76.7 | efficacious 5-HT1AR and D4R agonists with high potency |
| O=C(NCCCCN1CCN(c2cccc(Cl)c2Cl)CC1)C1COc2ccccc2O1 (stereo not drawn) [compound 9, N-(4-(4-(2,3-Dichlorophenyl)piperazin-1-yl)butyl)-2,3-dihydrobenzo[b][1,4]dioxine-2-carboxamide] | 2.16 ± 0.63 | 22 | 35 | 15.3 ± 1.9 | 73.1 | efficacious 5-HT1AR and D4R agonists with high potency |
